Measurements taken from patent US20160067272A1, “METHODS FOR TREATING IMMUNE DISEASES” (priority 2013, published 2016).

Legend:
CD4+CD25+ nTregs = assay: Functional in-vitro Treg cell assay (flow cytometry, ELISA, real-time PCR); type: cell-based, mouse
EAE in C57BL/6 mice = assay: EAE mouse model (behavioral score, splenic CD4+ T cells, spinal cord histology); type: in vivo
Experimental: Thus, the inventors used the experimental autoimmune encephalomyelitis (EAE) mouse model to study the impact of NAD^+, in vivo, on IL-10, Th1, Th17 and Treg cells in vivo. […] Next, the mechanisms by which NAD^+ protected from EAE in vivo were investigated, in particular its impact on IL-10 cytokine, Th1, Th17 and Tregs. Spleens were isolated from mice treated with NAD^+ or with a placebo solution 15 days after MOG immunization and CD4^+ T cell cytokine expression profile was analyzed by flow cytometry.
To assess the clinical efficacy of NAD^+ as a potential robust therapeutic, a group of mice that developed severe clinical symptoms of EAE (e.g., bilateral hindlimb paresis) was subjected to a daily NAD^+ treatment 15 days after MOG immunization.
Thus, the mechanism of how NAD^− treatment was able to reverse EAE progression was investigated. A previous study reported that nicotinamide (Nam) an NAD biosynthesis precursor can protect from myelin degradation and axon degeneration^43. The results described herein indicate that NAD^+ administered after the disease onset was able to reverse the progression of EAE. Thus, the inventors assessed whether NAD^+ was able to reverse the clinical symptoms of EAE by protecting axon from degeneration and whether NAD^+ had the capacity to promote myelin regeneration. […] Moreover, demyelination and axon loss were assessed with antibodies to myelin basic protein (MBP/SMI-9) and neurofilament (NF200), respectively, in all three groups (FIG. 5A-5F). Consistent with H&E and luxol blue findings, a significant reduction in both MBP staining depicting demyelination and axon loss evidenced by reduced NF 200 staining was very prominent in the group of mice treated with a placebo solution (FIG. 5A and 5D) when compared to the daily NAD^| treated group (FIG. 5B and 5E) and with mice treated with NAD+ after develop hindlimb paralysis (15 days after MOG immunization) (FIG. 5C and 5F).
EAE was induced in 10-week-old C57BL/6 mice using Hooke Labs EAE induction kit (EK-2110) according to manufacturer's instructions. […] For NAD^+ treatment mice received a daily intraperitoneal injection (60 mg in 100 μl in PBS) or a placebo solution (100 μl of PBS) at the same day than MOG immunization. Mice were sacrificed at day 18 and single cell suspension was obtained from spleens for flow cytometry analysis. To test whether NAD^+ was able to reverse the development of EAE, another group of mice was treated daily (for a period of 10 days) with NAD^+ (60 mg/mouse) or a placebo solution 15 days after MOG immunization when mice were scored 3 with a bilateral hindlimb paresis. EAE disease progression was monitored. For Tph-1 or CA3 inhibition, mice received daily intraperitoneal injections (simultaneous to NAD^−) of p-Chlorophenylalanine (1 ml of a 10 mM solution stock, catalog number 0938, Tocris Bioscience) or N-[[[(1S)-1-Carboxy-3-methylbutyl]amino]carbonyl]-L-glutamic acid (100 μl of a 100 mM solution stock, ZJ 43 catalog number 2675,Tocris Bioscience), respectively.

[1] = system: C57Bl/6 mice, OVA-induced allergy; assay: Allergic mouse model (ovalbumin); type: in vivo
Experimental: FIGS. 20A-20C depicts data from an experiment where allergy was induced in mice (C57B1/6) with intraperitoneal injections of OVA at day 1, 7, 14 and 21. Mice were treated with OVA or a placebo solution (PBS). […] NAD+ can therefore be used in chronic inflammation and allergy such as chronic obstructive pulmonary disease and atopic disorders.
The top panel of the figure is a schematic depicting the experimental protocol.
It is understood in a clinical setting that immunosuppressants are unable to specifically target activated/memory CD4+ T cells. Thus, the inventors next investigated the specificity of NAD+ using an allergic mouse model consisting of several intraperitoneal (i.p.) injections of ovalbumin (OVA) with Alumn. As a control, a group of mice received a placebo solution (PBS). In addition, to assess the specific effect of NAD+ on CD4+CD44^highCD62L^high activated/memory T cells, a group of mice received OVA followed by NAD+ injection.

[2] = nTregs with NAD+, 24 hrs of culture
[3] = nTregs with NAD+, after 4 days of culture
[4] = nTregs, increasing NAD+, 96 hrs, real-time PCR and ELISA
[5] = MOG-immunized mice, daily i.p. NAD+ from day of immunization
[6] = daily NAD+ and NAD+ from 15 days after MOG immunization
[7] = spleen, EAE mice, daily NAD+ vs placebo, flow cytometry
[8] = OVA i.p. day 1, 7, 14 and 21, with NAD+

Compound: NC(=O)c1ccc[n+]([C@@H]2O[C@H](COP(=O)([O-])OP(=O)(O)OC[C@H]3O[C@@H](n4cnc5c(N)ncnc54)[C@H](O)[C@@H]3O)[C@@H](O)[C@H]2O)c1 [NAD+, nicotinamide adenine dinucleotide]
- cells able to produce IL-17A (CD4+CD25+ nTregs; 250 μM NAD+, 96 hrs of culture): more than 16%
- nTregs apoptosis (CD4+CD25+ nTregs; Annexin V, increasing NAD+): induced
- proliferation of CD4+CD25−IL-17A+Foxp3+ cells (CFSE) (CD4+CD25+ nTregs; NAD+, dose dependent manner, no exogenous IL-23): able to proliferate
- frequencies of CD4+CD25+FoxP3+ cells (CD4+CD25+ nTregs; increased NAD+ concentrations, IL-2, no TGFβ/IL-6): reduced
- apoptosis of CD4+CD25−IL-17A+Foxp3+ cells (annexin V) (CD4+CD25+ nTregs; increasing NAD+, 48 and 96 hrs): did not become apoptotic
- IL-17A cytokine production (CD4+CD25+ nTregs; nTregs from STAT3−/− mice vs wild type, with NAD+, 96 hrs, ELISA): reduced
- frequency of IL-17A+ cells (CD4+CD25+ nTregs; nTregs from STAT3−/− mice vs wild type, with NAD+, 96 hrs, flow cytometry): significant decreased, but not complete
- Foxp3 mRNA level (CD4+CD25+ nTregs; [2]): significantly increased
- GATA3 expression level (CD4+CD25+ nTregs; [2]): remained unchanged
- RORγt mRNA level (CD4+CD25+ nTregs; [2]): > 10 fold
- STAT3 mRNA level (CD4+CD25+ nTregs; [2]): > 10 fold
- STAT5 expression level (CD4+CD25+ nTregs; [2]): remained unchanged
- Tbx21 expression level (CD4+CD25+ nTregs; [2]): remained unchanged
- Foxp3 mRNA level (CD4+CD25+ nTregs; [3]): remained significantly increased
- GATA-3 mRNA level (CD4+CD25+ nTregs; [3]): decreased significantly
- RORγt mRNA level (CD4+CD25+ nTregs; [3]): remained significantly increased
- STAT3 mRNA level (CD4+CD25+ nTregs; [3]): remained significantly increased
- STAT5 mRNA level (CD4+CD25+ nTregs; [3]): decreased significantly
- Tbx21 mRNA level (CD4+CD25+ nTregs; [3]): decreased significantly
- IFNγ mRNA and cytokine levels (CD4+CD25+ nTregs; [4]): decreased in a dose dependent manner
- IL-4 mRNA and cytokine levels (CD4+CD25+ nTregs; [4]): decreased in a dose dependent manner
- IL-10 mRNA and cytokine levels (CD4+CD25+ nTregs; [4]): decreased dramatically
- IL-17A mRNA and protein levels (CD4+CD25+ nTregs; [4]): increased in a dose dependent manner
- TGFβ mRNA and cytokine levels (CD4+CD25+ nTregs; [4]): decreased dramatically
- spinal cord inflammatory infiltrate, myelin loss and axonal injury (LFB and H&E stainings) (EAE in C57BL/6 mice; EAE mice treated daily with NAD+): remained free of inflammatory infiltrate, myelin loss, and axonal injury
- EAE (behavioral score) (EAE in C57BL/6 mice; [5]): protected against EAE
- paralysis (EAE in C57BL/6 mice; [5]): no sign of paralysis
- spinal cord inflammatory infiltrate, myelin loss and axonal injury (LFB and H&E stainings) (EAE in C57BL/6 mice; NAD+ started 15 days after MOG immunization (after hindlimb paralysis)): did not show inflammatory infiltrate, myelin loss, and axonal injury
- myelination positive area (MBP), spinal cord (EAE in C57BL/6 mice; [6]): significant protection and recovery
- neurofilament positive area (NF200), spinal cord (EAE in C57BL/6 mice; [6]): significant protection and recovery
- time of treatment until bilateral hindlimb paresis abolished (EAE in C57BL/6 mice; daily NAD+ started 15 days after MOG immunization): ≤ 10 days
- progression of EAE (EAE in C57BL/6 mice; daily NAD+ started 15 days after MOG immunization (bilateral hindlimb paresis), vs placebo): reversed the progression of the disease
- development of EAE (EAE in C57BL/6 mice; daily NAD+, after 25 days): did not develop EAE
- systemic IL-10 cytokine production by CD4+IFNγ+ cells (EAE in C57BL/6 mice; spleen, EAE mice, daily NAD+ vs control group, flow cytometry): dramatically enhanced
- IFNγ production by CD4+ T cells (EAE in C57BL/6 mice; [7]): promoted
- Th17 response (EAE in C57BL/6 mice; [7]): promoted a robust Th17 response
- number of CD4+CD25+Foxp3+ cells (EAE in C57BL/6 mice; [7]): reduced
- CD4+CD44highCD62Lhigh activated/memory T cell frequency ([1]; OVA followed by NAD+ injection, after 21 days): targets specifically
- frequencies of effector T cells induced by the antigen [1, 8]: reduces specifically
- frequencies of mature B cells induced by the antigen [1, 8]: reduces specifically
